One block for each compound: values may come before it.
Key:
[1] = test system: mice subjected to fetal reprogramming; experiment: Treadmill endurance test of mice subjected to fetal reprogramming; type: in vivo
Method: Before the experiment, mice were exercised for 5 minutes at a speed of 7 meters/min for two days so as to be adapted to exercising equipment. On day 3, the main experiment was conducted. As for the method for experiment, the mice were made to run at a speed of 10 meter/min for 60 minutes, and after that, the speed was increased at 1 meter/min once every 15 minutes until the maximum speed reaches 15 meters/min. As for the male mice, the running time was increased by 2.9 fold ([…], P<0.0001, n=6) and the running distance was increased by 3.0 fold (9927±1168 versus 3303±394 m, P<0.0001) in the PPAR δ agonist (CMDD1111)-administered mouse group than the control mouse group.
The Experiment using pregnant C57BL/6 mice was conducted in order to verify an endurance enhancement effect by fetal reprogramming of CMDD1226. […]
The experiment for verifying the fetal reprogramming effect of GW501516 and determining the optimum administration period thereof was conducted. The experiment method was shown in FIG. 1, and the experiment was conducted with respect to three kinds of administration periods (gestation period, lactation period, and both of gestation and lactation periods). As the experiment result, the group administered with PPAR δ agonist only during the gestation period had 2.6-fold and 3.2-fold increases in the running time and the running distance, respectively, and the group administered with PPAR δ agonist only during the lactation period had 2.4-fold and 3.0-fold increases in the running time and the running distance, respectively, as compared with the control group. The group administered with PPAR δ agonist during both the gestation and lactation periods had the most obvious increase in endurance, and had 5.1-fold and 6.6-fold increases as compared with the control group (FIG. 22).
The animal test was conducted in order to verify the muscle endurance enhancement and muscular function improvement effects of the material according to the present invention. […] […] The test using a treadmill was conducted in order to confirm the effect of this muscular fiber change on muscle endurance enhancement and muscular function improvement.

[2] = molecular target: T1, hPPARg (Homo sapiens, UniProt P37231); experiment: Transfection assay in CV-1 cells, hPPARg; type: cell-based; settings: luciferase reporter
T1 construct: expressed in transfected cells; host or cells: CV-1 cells
T1 sequence (P37231 1-505): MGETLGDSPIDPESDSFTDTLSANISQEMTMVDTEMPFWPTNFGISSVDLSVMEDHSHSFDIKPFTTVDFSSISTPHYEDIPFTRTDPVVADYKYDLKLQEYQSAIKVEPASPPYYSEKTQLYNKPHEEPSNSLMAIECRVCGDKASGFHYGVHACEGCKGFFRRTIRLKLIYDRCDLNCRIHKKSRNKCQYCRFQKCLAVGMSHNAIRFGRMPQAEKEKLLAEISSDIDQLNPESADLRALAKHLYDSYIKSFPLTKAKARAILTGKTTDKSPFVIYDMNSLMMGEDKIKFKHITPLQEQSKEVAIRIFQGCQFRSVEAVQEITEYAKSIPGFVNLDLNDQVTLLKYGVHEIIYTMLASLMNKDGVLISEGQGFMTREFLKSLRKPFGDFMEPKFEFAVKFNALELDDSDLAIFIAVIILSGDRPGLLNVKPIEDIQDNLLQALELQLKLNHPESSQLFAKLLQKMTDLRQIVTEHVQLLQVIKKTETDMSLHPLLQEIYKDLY
Method: (§1) This assay was conducted by using CV-1 cells. The cells were cultured on a 96-well plate with a DMEM medium containing 10% FBS, DBS (delipidated), and 1% penicillin/streptomycin in 37° C. of an incubator 5% of carbon dioxide. Test was conducted in four stages of cell inoculation, transfection, treatment with the developed material, and result confirmation. The CV-1 cells were inoculated on the 96-well plate at a cell density at 5,000 cells/well, and after 24 hours, transfection was performed. PPARs plasmid DNA, reporter DNA, and β-galactosidase DNA were mixed with a transfection reagent, and then used to treat the cells. The developed material was dissolved in dimethylsulfoxide (DMSO), and then was used to treat the cells by using media at various concentrations. After 24 hours of culturing in an incubator, the cells were lysed with a lysis buffer and luciferase activity and β-galactosidase activity were measured using a luminometer and a microplate reader. The measured luciferase value was calibrated with the β-galactosidase value, and this value was depicted on a graph and EC50 was determined.

[3] = molecular target: T2, hPPARa (Homo sapiens, UniProt Q07869); experiment: Transfection assay in CV-1 cells, hPPARa; type: cell-based; settings: luciferase reporter
T2 construct: expressed in transfected cells; host or cells: CV-1 cells
T2 sequence (Q07869 1-468): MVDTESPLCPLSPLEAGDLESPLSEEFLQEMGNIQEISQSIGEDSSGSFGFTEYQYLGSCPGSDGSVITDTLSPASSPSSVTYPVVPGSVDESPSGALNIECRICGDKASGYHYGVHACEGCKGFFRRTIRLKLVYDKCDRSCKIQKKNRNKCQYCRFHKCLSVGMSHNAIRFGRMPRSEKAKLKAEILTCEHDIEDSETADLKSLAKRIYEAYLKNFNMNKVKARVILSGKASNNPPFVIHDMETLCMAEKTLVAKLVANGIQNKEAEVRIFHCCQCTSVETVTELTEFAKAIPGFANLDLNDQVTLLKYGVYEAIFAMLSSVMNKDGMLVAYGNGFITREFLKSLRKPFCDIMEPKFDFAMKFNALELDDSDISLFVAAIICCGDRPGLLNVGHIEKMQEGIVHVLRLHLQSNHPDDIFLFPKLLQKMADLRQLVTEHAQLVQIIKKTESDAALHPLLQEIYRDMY
Method: as §1

[4] = molecular target: T3, hPPAR δ (Homo sapiens, UniProt Q03181); experiment: Transfection assay in CV-1 cells, hPPAR δ; type: cell-based; settings: luciferase reporter
T3 construct: expressed in transfected cells; host or cells: CV-1 cells
T3 sequence (Q03181 1-441): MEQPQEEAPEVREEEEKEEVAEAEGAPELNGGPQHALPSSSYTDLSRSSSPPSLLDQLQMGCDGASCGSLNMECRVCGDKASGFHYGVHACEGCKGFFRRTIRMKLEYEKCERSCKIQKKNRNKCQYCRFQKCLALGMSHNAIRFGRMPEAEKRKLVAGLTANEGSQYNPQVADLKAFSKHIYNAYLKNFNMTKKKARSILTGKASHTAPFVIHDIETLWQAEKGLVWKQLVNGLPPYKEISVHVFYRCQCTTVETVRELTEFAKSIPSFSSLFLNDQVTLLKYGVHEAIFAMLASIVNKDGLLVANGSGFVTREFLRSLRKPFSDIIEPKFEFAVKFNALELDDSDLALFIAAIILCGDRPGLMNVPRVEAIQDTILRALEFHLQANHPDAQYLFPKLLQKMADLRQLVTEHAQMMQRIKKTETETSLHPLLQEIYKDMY
Method: as §1

[5] = test system: HDL in serum; experiment: High-density lipoprotein cholesterol (HDL) in serum; type: in vivo; settings: mice fed 10% fat feedstuff over 6 weeks
Text: High-density lipoprotein cholesterol (HDL) has been known to play an important role in treating lipid metabolic disorders such as arteriosclerosis and hyperlipidemia while lowering the cholesterol level of an epidermal cell and mitigating an inflammatory reaction. Serum was separated from the mice fed over a 6-week period of feedstuff containing 10% fat in order to confirm the high-density cholesterol increase effect of Compounds 5 and 9, which were the developed materials of the present invention.

[6] = test system: slow muscle fibers and endurance; settings: cited from earlier work
[7] = C57BL/6, maternal 10 mg/kg/day gestation and lactation, 7-week old
[8] = administered during both gestation and lactation periods
[9] = administered only during the gestation period
[10] = administered only during the lactation period

EC50 hPPARg [2]: ia
EC50 hPPARa [3]: ia
EC50 [4]: 6.4 nM
SMILES: Cc1cc(SC(Cc2ccc(-c3ccc(C(F)(F)F)cc3)cc2)c2sc(-c3ccc(C(F)(F)F)cc3)nc2C)ccc1OCC(=O)O (stereo not drawn) [Compound 17]

EC50 hPPARg [2]: ia
EC50 hPPARa [3]: ia
EC50 [4]: 10.6 nM
SMILES: Cc1cc(SC(Cc2ccc(-c3ccc(C(F)(F)F)cc3)nc2)c2sc(-c3ccc(C(F)(F)F)cc3)nc2C)ccc1OCC(=O)O (stereo not drawn) [Compound 21]

EC50 hPPARg [2]: ia
EC50 hPPARa [3]: ia
EC50 [4]: 6.1 nM
SMILES: Cc1cc(SC(Cc2ccc(-c3cccc(C(F)(F)F)c3)cc2)c2sc(-c3ccc(C(F)(F)F)cc3)nc2C)ccc1OCC(=O)O (stereo not drawn) [Compound 25]

Continued, compound first:

SMILES: Cc1cc(SC(Cc2c(F)cccc2Cl)c2sc(-c3ccc(C(F)(F)F)cc3)nc2C)ccc1OCC(=O)O (stereo not drawn) [CMDD1112]
endurance enhancement effect ([1]; 1 mg/kg/day): not exhibited
endurance enhancement effect ([1]; 2 mg/kg/day): not exhibited
running distance enhancement ([1]; 5 mg/kg/day): 1.5 fold
running time enhancement ([1]; 5 mg/kg/day): 1.4 fold

SMILES: Cc1cc([Se]C(Cc2ccccc2)c2sc(-c3ccc(C(F)(F)F)cc3)nc2C)ccc1OCC(=O)O (stereo not drawn) [CMDD1226]
increase in the running distance versus control [1, 7]: 2.0 fold
increase in the running time versus control [1, 7]: 1.9 fold

SMILES: Cc1cc(SC(Cc2ccc(-c3cc(F)c(F)c(F)c3)cc2)c2sc(-c3ccc(C(F)(F)F)cc3)nc2C)ccc1OCC(=O)O (stereo not drawn) [Compound 13]
EC50 hPPARg [2]: ia
EC50 hPPARa [3]: ia
EC50 [4]: 8.8 nM

SMILES: CCOC(=O)COc1ccc(SC(Cc2ccc(-c3ccc(F)c(Cl)c3)cc2)c2sc(-c3ccc(C(F)(F)F)cc3)nc2C)cc1C (stereo not drawn) [Compound 28]
EC50 hPPARg [2]: ia
EC50 hPPARa [3]: ia
EC50 [4]: 4.6 nM

SMILES: Cc1cc(SC(Cc2cc(-c3ccc(F)cc3)no2)c2sc(-c3ccc(C(F)(F)F)cc3)nc2C)ccc1OCC(=O)O (stereo not drawn) [Compound 33]
EC50 hPPARg [2]: ia
EC50 hPPARa [3]: ia
EC50 [4]: 41.4 nM

SMILES: Cc1cc(SCc2sc(-c3ccc(C(F)(F)F)cc3)nc2C)ccc1OCC(=O)O [GW501516, reference compound]
HDL increase in serum [5]: 29%
improvement in slow muscle fibers and endurance ([6]; administration alone to an adult): did not show improvement
slow muscle fibers and endurance ([6]; simultaneous combination of exercise and administration): generated slow muscle fibers and enhanced endurance
increase in the running distance versus control [1, 8]: 6.6 fold
increase in the running time versus control [1, 8]: 5.1 fold
increase in the running distance versus control [1, 9]: 3.2 fold
increase in the running time versus control [1, 9]: 2.6 fold
increase in the running distance versus control [1, 10]: 3.0 fold
increase in the running time versus control [1, 10]: 2.4 fold
